The melting point is the temperature of the solid-liquid transition.

Take `Clc1ccc2c(-c3cncn3CCc3ccccc3)c[nH]c2c1` [Compound 20, 6-Chloro-3-(1-phenethyl-1H-imidazol-5-yl)-1H-indole]: the melting point is 91 to 92 °C.

Take `Clc1ccc2[nH]cc(-c3cncn3CCc3c[nH]c4ccccc34)c2c1` [Compound 84, 3-(1-(2-(1H-Indol-3-yl)ethyl)-1H-imidazol-5-yl)-5-chloro-1H-indole]: the melting point lay within 70 to 71 °C.

In turn, `CCCCCn1cncc1-c1c[nH]c2cccc(F)c12` returned a melting point of 147 to 148 °C.

As to `Brc1ccc2[nH]cc(-c3cncn3CCc3ccc4c(c3)OCO4)c2c1` [Compound 41, 3-(1-(2-(Benzo[d][1,3]dioxol-5-yl)ethyl)-1H-imidazol-5-yl)-5-bromo-1H-indole], the melting point fell in the range of 176 to 177 °C.

`COc1ccc2[nH]cc(-c3cncn3CCc3c[nH]c4ccccc34)c2c1` [Compound 87, 3-(1-(2-(1H-Indol-3-yl)ethyl)-1H-imidazol-5-yl)-5-methoxy-1H-indole] returned a melting point of 152 to 153 °C.

As for `CCCCCn1cncc1-c1c[nH]c2cccc(Br)c12` [Compound 94, 4-Bromo-3-(1-pentyl-1H-imidazol-5-yl)-1H-indole], the melting point was in the range of 207 to 208 °C.

The compound `COc1ccc(Cn2cncc2-c2c[nH]c3cccc(Br)c23)cc1` [Compound 63, 4-Bromo-3-(1-(4-methoxybenzyl)-1H-imidazol-5-yl)-1H-indole] came in with a melting point of 92 to 93 °C.

In turn, `Fc1cccc2[nH]cc(-c3cncn3CCc3c[nH]c4ccccc34)c12` [Compound 81, 3-(1-(2-(1H-Indol-3-yl)ethyl)-1H-imidazol-5-yl)-4-fluoro-1H-indole] showed a melting point above 230 °C.

Turning to `COc1ccc(OC)c(CCn2cncc2-c2c[nH]c3cc(Br)ccc23)c1` [Compound 35, 6-Bromo-3-(1-(2,5-dimethoxyphenethyl)-1H-imidazol-5-yl)-1H-indole], the melting point fell in the range of 133 to 134 °C.

On to `COc1ccc2c(-c3cncn3CCc3c[nH]c4ccccc34)c[nH]c2c1` [Compound 88, 3-(1-(2-(1H-Indol-3-yl)ethyl)-1H-imidazol-5-yl)-6-methoxy-1H-indole], for which the melting point lay within 81 to 82 °C.

As for `COc1ccc(Cn2cncc2-c2c[nH]c3ccc(Br)cc23)cc1` [Compound 16, 5-Bromo-3-(1-(4-methoxybenzyl)-1H-imidazol-5-yl)-1H-indole], the melting point is 197 to 198 °C.

In turn, `Fc1ccc2[nH]cc(-c3cncn3Cc3ccc(I)cc3)c2c1` [Compound 5, 5-Fluoro-3-(1-(4-iodobenzyl)-1H-imidazol-5-yl)-1H-indole] displayed a melting point of 187 to 188 °C.

In turn, `Clc1ccc2[nH]cc(-c3cncn3Cc3ccccc3)c2c1` [Compound 46, 3-(1-Benzyl-1H-imidazol-5-yl)-5-chloro-1H-indole] returned a melting point of 78 to 79 °C.

`Fc1cccc2[nH]cc(-c3cncn3Cc3ccccc3)c12` [Compound 43, 3-(1-Benzyl-1H-imidazol-5-yl)-4-fluoro-1H-indole] had a melting point of 177 to 178 °C.

Consider `Clc1cccc2[nH]cc(-c3cncn3CCc3ccccc3)c12` [Compound 53, 4-Chloro-3-(1-phenethyl-1H-imidazol-5-yl)-1H-indole], for which the melting point lay in the range of 73 to 74 °C.

In turn, `COc1ccc(Cn2cncc2-c2c[nH]c3cccc(Cl)c23)cc1` [Compound 61, 4-Chloro-3-(1-(4-methoxybenzyl)-1H-imidazol-5-yl)-1H-indole] yielded a melting point of 74 to 75 °C.

`COc1ccc(Cn2cncc2-c2c[nH]c3ccc(OC)cc23)cc1` [Compound 64, 5-Methoxy-3-(1-(4-methoxybenzyl)-1H-imidazol-5-yl)-1H-indole] showed a melting point of 67 to 68 °C.

`c1ccc2c(-c3cncn3CCc3ccc4c(c3)OCO4)c[nH]c2c1` [Compound 36, 3-(1-(2-(Benzo[d][1,3]dioxol-5-yl)ethyl)-1H-imidazol-5-yl)-1H-indole] displayed a melting point of 195 to 196 °C.

In the case of `Clc1ccc2c(-c3cncn3Cc3ccc(I)cc3)c[nH]c2c1` [Compound 8, 6-Chloro-3-(1-(4-iodobenzyl)-1H-imidazol-5-yl)-1H-indole], the melting point was above 200 °C.

Regarding `Clc1cccc2[nH]cc(-c3cncn3Cc3c[nH]c4ccccc34)c12` [Compound 75, 3-(1-((1H-Indol-3-yl)methyl)-1H-imidazol-5-yl)-4-chloro-1H-indole], the melting point was 195 to 196 °C.

In the case of `COc1ccc(Cn2cncc2-c2c[nH]c3c(F)cccc23)cc1` [Compound 60, 7-Fluoro-3-(1-(4-methoxybenzyl)-1H-imidazol-5-yl)-1H-indole], the melting point was in the range of 179 to 180 °C.

In the case of `COc1ccc(-c2cncn2CCc2c[nH]c3ccccc23)cc1` [Compound 114, 3-(2-(5-(4-Methoxyphenyl)-1H-imidazol-1-yl)ethyl)-1H-indole], the melting point fell in the range of 169 to 170 °C.

With `COc1ccc2[nH]cc(-c3cncn3Cc3ccccc3)c2c1` [Compound 49, 3-(1-Benzyl-1H-imidazol-5-yl)-5-methoxy-1H-indole], the melting point fell in the range of 65 to 66 °C.

`Clc1cccc2c(-c3cncn3Cc3ccccc3)c[nH]c12` [Compound 47, 3-(1-Benzyl-1H-imidazol-5-yl)-7-chloro-1H-indole] gave a melting point of 179 to 180 °C.

Compound `Fc1cccc2c(-c3cncn3CCc3c[nH]c4ccccc34)c[nH]c12` [Compound 82, 3-(1-(2-(1H-Indol-3-yl)ethyl)-1H-imidazol-5-yl)-7-fluoro-1H-indole] yielded a melting point above 230 °C.

In turn, `Brc1cccc2[nH]cc(-c3cncn3CCc3ccccc3)c12` [Compound 55, 4-Bromo-3-(1-phenethyl-1H-imidazol-5-yl)-1H-indole] came in with a melting point of 204 to 205 °C.

Regarding `c1ccc(-c2cncn2CCc2c[nH]c3ccccc23)cc1` [Compound 113, 3-(2-(5-Phenyl-1H-imidazol-1-yl)ethyl)-1H-indole], the melting point fell in the range of 155 to 156 °C.

In the case of `Fc1cccc2[nH]cc(-c3cncn3Cc3c[nH]c4ccccc34)c12` [Compound 73, 3-(1-((1H-Indol-3-yl)methyl)-1H-imidazol-5-yl)-4-fluoro-1H-indole], the melting point fell in the range of 164 to 165 °C.

The compound `COc1ccc(CCn2cncc2-c2c[nH]c3cccc(Br)c23)cc1` [Compound 70, 4-Bromo-3-(1-(4-methoxyphenethyl)-1H-imidazol-5-yl)-1H-indole] came in with a melting point of 83 to 84 °C.

For the compound `COc1ccc(CCn2cncc2-c2c[nH]c3cccc(Cl)c23)cc1` [Compound 68, 4-Chloro-3-(1-(4-methoxyphenethyl)-1H-imidazol-5-yl)-1H-indole], the melting point was 76 to 77 °C.

For `Clc1ccc2[nH]cc(-c3cncn3Cc3c[nH]c4ccccc34)c2c1` [Compound 76, 3-(1-((1H-Indol-3-yl)methyl)-1H-imidazol-5-yl)-5-chloro-1H-indole], the melting point fell in the range of 107 to 108 °C.

`COc1ccc(OC)c(CCn2cncc2-c2c[nH]c3ccc(F)cc23)c1` [Compound 30, 3-(1-(2,5-Dimethoxyphenethyl)-1H-imidazol-5-yl)-5-fluoro-1H-indole] showed a melting point of 150 to 151 °C.

`COc1ccc(OC)c(CCn2cncc2-c2c[nH]c3cc(F)ccc23)c1` [Compound 31, 3-(1-(2,5-Dimethoxyphenethyl)-1H-imidazol-5-yl)-6-fluoro-1H-indole] displayed a melting point of 130 to 131 °C.

For the compound `CCCCCn1cncc1-c1c[nH]c2c(Cl)cccc12` [Compound 93, 7-Chloro-3-(1-pentyl-1H-imidazol-5-yl)-1H-indole], the melting point fell in the range of 122 to 123 °C.

Compound `COc1ccc(CCn2cncc2-c2c[nH]c3cc(OC)ccc23)cc1` [Compound 72, 6-Methoxy-3-(1-(4-methoxyphenethyl)-1H-imidazol-5-yl)-1H-indole] had a melting point of 45 to 46 °C.

For `Brc1cccc2[nH]cc(-c3cncn3CCc3c[nH]c4ccccc34)c12` [Compound 86, 3-(1-(2-(1H-Indol-3-yl)ethyl)-1H-imidazol-5-yl)-4-bromo-1H-indole], the melting point is above 230 °C.

Turning to `Brc1cccc2[nH]cc(-c3cncn3Cc3ccccc3)c12` [Compound 48, 3-(1-Benzyl-1H-imidazol-5-yl)-4-bromo-1H-indole], the melting point lay within 201 to 202 °C.

Consider `COc1ccc(CCn2cncc2-c2c[nH]c3c(F)cccc23)cc1` [Compound 67, 7-Fluoro-3-(1-(4-methoxyphenethyl)-1H-imidazol-5-yl)-1H-indole], for which the melting point lay within 175 to 176 °C.

`COc1ccc(CCn2cncc2-c2c[nH]c3cccc(F)c23)cc1` [Compound 66, 4-Fluoro-3-(1-(4-methoxyphenethyl)-1H-imidazol-5-yl)-1H-indole] displayed a melting point of 56 to 57 °C.

For the compound `COc1ccc(-c2cncn2Cc2c[nH]c3ccccc23)cc1` [Compound 112, 3-((5-(4-Methoxyphenyl)-1H-imidazol-1-yl)methyl)-1H-indole], the melting point was in the range of 152 to 153 °C.

In the case of `COc1ccc(Cn2cncc2-c2c[nH]c3cc(OC)ccc23)cc1` [Compound 65, 6-Methoxy-3-(1-(4-methoxybenzyl)-1H-imidazol-5-yl)-1H-indole], the melting point is 65 to 66 °C.

For the compound `COc1ccc(Cn2cncc2-c2c[nH]c3cc(F)ccc23)cc1` [Compound 13, 6-Fluoro-3-(1-(4-methoxybenzyl)-1H-imidazol-5-yl)-1H-indole], the melting point lay within 181 to 182 °C.

For `Clc1ccc2[nH]cc(-c3cncn3CCc3ccc4c(c3)OCO4)c2c1` [Compound 39, 3-(1-(2-(Benzo[d][1,3]dioxol-5-yl)ethyl)-1H-imidazol-5-yl)-5-chloro-1H-indole], the melting point is above 200 °C.

For the compound `COc1ccc(OC)c(CCn2cncc2-c2c[nH]c3cc(Cl)ccc23)c1` [Compound 33, 6-Chloro-3-(1-(2,5-dimethoxyphenethyl)-1H-imidazol-5-yl)-1H-indole], the melting point fell in the range of 80 to 81 °C.

Take `Clc1cccc2c(-c3cncn3Cc3c[nH]c4ccccc34)c[nH]c12` [Compound 77, 3-(1-((1H-Indol-3-yl)methyl)-1H-imidazol-5-yl)-7-chloro-1H-indole]: the melting point lay in the range of 165 to 166 °C.

Take `Fc1cccc2[nH]cc(-c3cncn3CCc3ccccc3)c12` [Compound 51, 4-Fluoro-3-(1-phenethyl-1H-imidazol-5-yl)-1H-indole]: the melting point was 181 to 182 °C.
